Measured values as given in patent US20170275275A1, “BENZENESULFONAMIDES USEFUL AS SODIUM CHANNEL INHIBITORS” (PFIZER INC., priority 2014, published 2017).
Counter-ions that a name gives are not always drawn.

Target: T1, Nav1.7 (or SCN9A) channel (Homo sapiens, UniProt Q15858)
T1 construct: expressed in transfected cells
Test: Nav1.7 (hSCN9A) channel block, PatchXpress (PX) whole-cell electrophysiology in stably transfected HEK cells
Format: cell-based
Conditions: HEK293; Nav1.7, PatchXpress, 30 nM; read-out: % inhibition at 30 nM dose
Experimental: The ability of the compounds of formula (I) to block the Nav1.7 (or SCN9A) channel was measured using the assay described below.
Human Embryonic Kidney (HEK) cells were transfected with an hSCN9A construct using lipofectamine reagent (Invitrogen), using standard techniques. Cells stably expressing the hSCN9A constructs were identified by their resistance to G-418 (400 μg/ml). Clones were screened for expression using the whole-cell voltage-clamp technique.
HEK cells stably transfected with hSCN9A were maintained in DMEM medium supplemented with 10% heat-inactivated fetal bovine serum and 400 μg/ml G-418 in an incubator at 37° C. with a humidified atmosphere of 10% CO2. For HTS, cells were harvested from flasks by trypsinization and replated in an appropriate multi-well plate (typically 96 or 384 wells/plate) such that confluence would be achieved within 24 hours of plating. Cells were typically used for electrophysiological experiments within 24 to 72 hours after plating.
For conventional whole-cell voltage clamp experiments cells were removed from the culture flask by brief trypsinization and re-plated at low density onto glass cover slips. Cover slips containing HEK cells expressing hSCN9A were placed in a bath on the stage of an inverted microscope and perfused (approximately 1 ml/minutes) with extracellular solution of the following composition: 138 mM NaCl, 2 mM CaCl2, 5.4 mM KCl, 1 mM MgCl2, 10 mM glucose, and 10 mM HEPES, pH 7.4, with NaOH. […] The osmolarity of the extracellular and intracellular solutions was 300 mOsm/kg and 295 mOsm/kg, respectively. All recordings were made at room temperature (22-24° C.) using AXOPATCH 200B amplifiers and PCLAMP software (Axon Instruments, Burlingame, Calif.). hSCN9A currents in HEK cells were measured using the whole-cell configuration of the patch-clamp technique (Hamill et al., 1981). Uncompensated series resistance was typically 2 to 5 mega ohms and >85% series resistance compensation was routinely achieved. […] Current records were acquired at 20 to 50 KHz and filtered at 5 to 10 KHz.
HEK cells stably transfected with hSCN9A were viewed under Hoffman contrast optics and placed in front of an array of flow pipes emitting either control or compound-containing extracellular solutions.
The voltage-dependence of inactivation was determined by applying a series of depolarizing prepulses (8 sec long in 10 mV increments) from a negative holding potential. The voltage was then immediately stepped to 0 mV to assess the magnitude of the sodium current. Currents elicited at 0 mV were plotted as a function of prepulse potential to allow estimation of the voltage at which 50% of the channels were inactivated (midpoint of inactivation or V1/2). Compounds were tested for their ability to inhibit hSCN9A sodium channels by activating the channel with a 20 msec voltage step […] to 0 mV following an 8 second conditioning prepulse to the empirically determined V1/2. Compound effect (% inhibition) was determined by difference in current amplitude before and after application of test compounds. For ease of comparison, “estimated IC-50” (EIC50) values were calculated from single point electrophysiology data by the following equation, (tested concentration, nM)×(100-% inhibition/% inhibition). Inhibition values <20% and >80% were excluded from the calculation.
Electrophysiological assays were conducted with PatchXpress 7000 hardware and associated software (Molecular Devices Corp). All assay buffers and solutions were identical to those used in conventional whole-cell voltage clamp experiments described above. hSCN9A cells were grown as above to 50%-80% confluency and harvested by trypsinization. Trypsinized cells were washed and resuspended in extracellular buffer at a concentration of 1×10^6 cells/ml. The onboard liquid handling facility of the PatchXpress was used for dispensing cells and application of test compounds.

T1 sequence (Q15858 whole entry): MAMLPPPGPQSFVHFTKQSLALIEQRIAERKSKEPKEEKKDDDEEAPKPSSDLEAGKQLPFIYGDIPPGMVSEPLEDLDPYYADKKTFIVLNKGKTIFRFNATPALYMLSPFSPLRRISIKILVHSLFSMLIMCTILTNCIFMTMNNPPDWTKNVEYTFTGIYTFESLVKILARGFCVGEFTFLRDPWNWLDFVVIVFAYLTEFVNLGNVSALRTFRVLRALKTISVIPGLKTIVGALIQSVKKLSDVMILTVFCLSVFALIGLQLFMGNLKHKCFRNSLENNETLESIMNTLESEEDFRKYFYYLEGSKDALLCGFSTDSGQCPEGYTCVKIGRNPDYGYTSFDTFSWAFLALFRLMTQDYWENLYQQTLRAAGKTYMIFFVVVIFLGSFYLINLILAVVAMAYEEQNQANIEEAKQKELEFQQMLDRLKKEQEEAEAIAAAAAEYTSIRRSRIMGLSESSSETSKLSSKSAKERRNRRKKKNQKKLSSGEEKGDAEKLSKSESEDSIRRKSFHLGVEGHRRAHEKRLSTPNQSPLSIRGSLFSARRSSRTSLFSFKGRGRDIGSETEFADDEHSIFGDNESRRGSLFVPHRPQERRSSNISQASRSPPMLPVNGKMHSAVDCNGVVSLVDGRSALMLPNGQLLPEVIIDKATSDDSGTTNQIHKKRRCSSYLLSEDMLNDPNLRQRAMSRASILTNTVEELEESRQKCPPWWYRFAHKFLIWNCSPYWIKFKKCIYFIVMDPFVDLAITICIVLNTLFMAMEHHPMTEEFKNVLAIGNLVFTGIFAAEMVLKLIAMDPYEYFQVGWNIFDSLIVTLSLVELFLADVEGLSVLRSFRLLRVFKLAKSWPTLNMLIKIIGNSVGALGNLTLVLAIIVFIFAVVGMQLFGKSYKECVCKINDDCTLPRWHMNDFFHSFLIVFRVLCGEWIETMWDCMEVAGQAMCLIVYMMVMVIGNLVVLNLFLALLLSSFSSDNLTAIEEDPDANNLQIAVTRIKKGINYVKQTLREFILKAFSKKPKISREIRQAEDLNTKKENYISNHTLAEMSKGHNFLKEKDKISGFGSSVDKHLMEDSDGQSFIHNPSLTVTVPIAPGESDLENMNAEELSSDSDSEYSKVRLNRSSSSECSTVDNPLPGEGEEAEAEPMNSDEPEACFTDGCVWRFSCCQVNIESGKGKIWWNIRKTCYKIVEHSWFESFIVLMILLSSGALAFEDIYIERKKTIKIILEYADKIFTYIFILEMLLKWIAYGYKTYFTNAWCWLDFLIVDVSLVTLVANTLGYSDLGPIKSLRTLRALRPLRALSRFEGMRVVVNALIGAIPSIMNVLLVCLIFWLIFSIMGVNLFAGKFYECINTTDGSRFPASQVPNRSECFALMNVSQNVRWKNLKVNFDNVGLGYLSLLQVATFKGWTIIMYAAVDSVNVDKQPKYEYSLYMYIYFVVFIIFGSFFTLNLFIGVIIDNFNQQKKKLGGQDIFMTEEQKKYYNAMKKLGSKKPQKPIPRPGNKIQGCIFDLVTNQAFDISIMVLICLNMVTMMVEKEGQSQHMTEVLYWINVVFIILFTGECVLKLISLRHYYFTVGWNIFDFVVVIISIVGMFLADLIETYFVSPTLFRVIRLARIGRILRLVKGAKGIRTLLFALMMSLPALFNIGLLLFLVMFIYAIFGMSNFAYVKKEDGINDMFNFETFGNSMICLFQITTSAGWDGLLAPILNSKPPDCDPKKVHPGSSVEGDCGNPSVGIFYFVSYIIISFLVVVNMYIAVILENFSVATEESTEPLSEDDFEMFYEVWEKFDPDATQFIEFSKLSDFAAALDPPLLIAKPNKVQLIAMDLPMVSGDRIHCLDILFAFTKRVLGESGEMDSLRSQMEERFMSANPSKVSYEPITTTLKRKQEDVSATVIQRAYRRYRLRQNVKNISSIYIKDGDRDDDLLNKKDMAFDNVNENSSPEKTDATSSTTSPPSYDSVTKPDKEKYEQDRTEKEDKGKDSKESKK

| inhibition at 0.03 µM | Compound |
| --- | --- |
| 10.7% | O=S(=O)(Nc1cscn1)c1cc(Cl)c(Oc2ccc(-c3cccc(C(F)(F)F)c3)cc2-c2ccnc(CNCCC3CCNCC3)c2)cc1F [Example 2, 5-Chloro-2-fluoro-4-{[3-(2-{[(2-piperidin-4-ylethyl)amino]methyl}pyridin-4-yl)-3′-(trifluoromethyl)biphenyl-4-yl]oxy}-N-1,3-thiazol-4-ylbenzenesulfonamide] |

Same assay, conditions: estimated IC50 from single point electrophysiology data; PatchXpress platform; HEK cells expressing hSCN9A; clamped at V1/2 of inactivation; read-out: Nav1.7 EIC50

| IC50 | Compound |
| --- | --- |
| 23.9 nM | COCCOCCOCCOCCOCCOCCOCCOCCOCCOCCOCCOCCC(=O)N1CCC(CCNCc2cc(-c3cc(-c4cccc(C(F)(F)F)c4)ccc3Oc3cc(F)c(S(=O)(=O)Nc4cscn4)cc3Cl)ccn2)CC1 [Example 30, 5-chloro-2-fluoro-4-{[3-{2-[({2-[1-(38-oxo-2,5,8,11,14,17,20,23,26,29,32,35-dodecaoxaoctatriacontan-38-yl)piperidin-4-yl]ethyl}amino)methyl]pyridin-4-yl}-3′-(trifluoromethyl)biphenyl-4-yl]oxy}-N-(1,3-thiazol-4-yl)benzenesulfonamide hydrochloride salt] |
| > 30 nM | O=S(=O)(Nc1cscn1)c1cc(Cl)c(Oc2ccc(-c3cccc(C(F)(F)F)c3)cc2-c2ccnc(CNCCC3CCNCC3)c2)cc1F [Example 2, 5-Chloro-2-fluoro-4-{[3-(2-{[(2-piperidin-4-ylethyl)amino]methyl}pyridin-4-yl)-3′-(trifluoromethyl)biphenyl-4-yl]oxy}-N-1,3-thiazol-4-ylbenzenesulfonamide] |
| 47.2 nM | COCCOCCOCCOCCOCCOCCOCCOCCOCCOCCOCCOCCC(=O)NCc1cc(-c2cc(-c3cccc(C(F)(F)F)c3)ccc2Oc2cc(F)c(S(=O)(=O)Nc3nncs3)cc2Cl)ccn1 [Example 27, N-[(4-{4-[2-chloro-5-fluoro-4-(1,3,4-thiadiazol-2-ylsulfamoyl)phenoxy]-3′-(trifluoromethyl)biphenyl-3-yl}pyridin-2-yl)methyl]-2,5,8,11,14,17,20,23,26,29,32,35-dodecaoxaoctatriacontan-38-amide] |
| 241 nM | COCCOCCOCCOCCOCCOCCOCCOCCOCCOCCOCCOCCC(=O)NCc1cc(-c2cc(-c3cccc(C(F)(F)F)c3)ccc2Oc2cc(F)c(S(=O)(=O)Nc3cscn3)cc2Cl)ccn1 [Example 28, N-[(4-{4-[2-chloro-5-fluoro-4-(1,3-thiazol-4-ylsulfamoyl)phenoxy]-3′-(trifluoromethyl)biphenyl-3-yl}pyridin-2-yl)methyl]-2,5,8,11,14,17,20,23,26,29,32,35-dodecaoxaoctatriacontan-38-amide] |
| 1 nM | COCCOCCOCCOCCOC1CN(Cc2cc(-c3cc(-c4cccc(C(F)(F)F)c4)ccc3Oc3ccc(S(=O)(=O)Nc4ncns4)cc3C#N)ccn2)C1 [Example 20, hemi trifluoroacetate salt] |
| 1.7 nM | COCCOCCOCCOCCOCCOCCOCCOCCOCCOCCOCCOCCC(=O)N1CCC(CCNCc2cc(-c3cc(-c4cccc(C(F)(F)F)c4)ccc3Oc3cc(F)c(S(=O)(=O)Nc4nncs4)cc3Cl)ccn2)CC1 [Example 33, 5-chloro-2-fluoro-4-{[3-{2-[({2-[1-(38-oxo-2,5,8,11,14,17,20,23,26,29,32,35-dodecaoxaoctatriacontan-38-yl)piperidin-4-yl]ethyl}amino)methyl]pyridin-4-yl}-3′-(trifluoromethyl)biphenyl-4-yl]oxy}-N-(1,3,4-thiadiazol-2-yl)benzenesulfonamide formate salt] |
| 3.4 nM | COCCOCCOCCOC(=O)NCc1cc(-c2cc(-c3cccc(C(F)(F)F)c3)ccc2Oc2ccc(S(=O)(=O)Nc3ncns3)cc2C#N)ccn1 [Example 8, 2-[2-(2-methoxyethoxy)ethoxy]ethyl [(4-{4-[2-cyano-4-(1,2,4-thiadiazol-5-ylsulfamoyl)phenoxy]-3′-(trifluoromethyl)biphenyl-3-yl}pyridin-2-yl)methyl]carbamate triethylammonium salt] |
| 1 nM | N#Cc1cc(S(=O)(=O)Nc2ncns2)ccc1Oc1ccc(-c2ccccc2)cc1-c1cccc(C(=O)NCCN2CCNCC2)c1 [Example 3, 6′-{2-cyano-4-[(1,2,4-thiadiazol-5-ylamino)sulfonyl]phenoxy}-N-(2-piperazin-1-ylethyl)-1,1′:3′,1″-terphenyl-3-carboxamide] |
